In publication PMC5175396, “Cytotoxicity of Plumbagin, Rapanone and 12 other naturally occurring Quinones from Kenyan Flora towards human carcinoma cells” (BMC Pharmacology & Toxicology, 2016):

Tests used:
[1] = test system: MCF-7 cells; assay: Mitochondrial membrane potential (MMP) analysis, JC-1 staining, flow cytometry; type: cell-based, human; conditions: IC50 (C3), 72 h, control 4.3%
Description: The MMP was analyzed in MCF-7 cells by 5,5′,6,6′-tetrachloro-1,1′,3,3′-tetraethylbenzimidazolylcarbocyanine iodide) (JC-1; Biomol, Hamburg, Germany) staining as previously reported. […] Subsequently, cells were measured in a BD FACS Aria I Cell Sorter Flow Cytometer (Becton-Dickinson, Germany). The JC-1 signal was measured at an excitation of 561 nm (150 mW) and detected using a 586/15 nm band-pass filter. The signal was analyzed at 640 nm excitation (40 mW) and detected using a 730/45 nm bandpass filter. Cytographs were analyzed using BD FACSDiva™ Flow Cytometry Software Version 6.1.2 (Becton-Dickinson). All experiments were performed at least in triplicate.

[2] = test system: DLD-1 colorectal adenocarcinoma cell lines; assay: Neutral red (NR) uptake cytotoxicity assay, DLD-1; type: cell-based, human; conditions: for IC50: Homo sapiens, DLD-1, neutral red assay, 72 h incubation, read-out: IC50 DLD-1
Text: (§1) Six human cancer cell lines and one normal cell line were used in this study. They included A549 human non-small cell lung cancer (NSCLC) cell line, obtained from the Institute for Fermentation, Osaka (IFO, Japan) and provided by Prof. Dr. Tansu Koparal (Anadolu University, Eskisehir, Turkey), SPC212 human mesothelioma cell line obtained from American Type Culture Collection (ATCC) and provided by Dr. Asuman Demiroğlu Zergeroğlu (Gebze Technical University, Kocaeli, Turkey), DLD-1 colorectal adenocarcinoma cell lines obtained from ATCC (CCL-221), Caco2 colorectal adenocarcinoma cells (ATCC, HTB-37) obtained from the ŞAP Institute of Turkey (Ankara), HepG2 hepatocarcinoma cells (ATCC, HB-8065) and MCF-7 breast adenocarcinoma cells (ATCC, HTB-22) were provided by Prof. Dr. Tansu Koparal (Anadolu University, Eskisehir, Turkey). The normal CRL2120 human skin fibroblasts were obtained from ATCC [CCD1094Sk (ATCC, CRL-2120)]. The cells were maintained as a monolayer in DMEM medium (Sigma-aldrich, Munich, Germany) medium supplemented with 10% fetal calf serum and 1% penicillin (100 U/mL)-streptomycin (100 μg/mL) in a humidified 5% CO2 atmosphere at 37 °C.
(§2) The cytotoxicity of samples was performed by NR uptake assay as previously described. This method is based on the ability of viable cells to incorporate and bind the supravital dye NR in the lysosomes. The procedure is cheaper and more sensitive than other cytotoxicity tests. […] Briefly, cells were detached by treatment with 0.25% trypsin/EDTA (Invitrogen) and an aliquot of 1 × 10^4 cells was placed in each well of a 96-well cell culture plate […]. The cells were allowed to attach overnight and subsequently treated with different concentrations of the 14 compounds. Each of the studied samples was immediately added in varying concentrations in additional 100 μL of culture medium to obtain a total volume of […]/well. After 72 h incubation in humidified 5% CO2 atmosphere at 37 °C, the medium was removed and 200 μL fresh medium containing 50 μg/mL NR was added to each well and incubation continued for an additional 3 h at 37 °C in 5% CO2 atmosphere. The dye medium was then removed and each well was then washed rapidly with 200 μL phosphate buffer saline (PBS) followed by addition of 200 μL of acetic acid-water-ethanol in water (1:49:50). The plates were kept for 15 min at room temperature to extract the dye and then shaken for a few minutes on a GFL 3012 shaker (Gesellschaft für Labortechnik mbH, Burgwedel, Germany). Absorbance was measured on ELx 808 Ultra Microplate Reader (Biotek) equipped with a 540 nm filter. Each assay was done at least three times, with three replicates each. The viability was evaluated based on a comparison with untreated cells. The IC50 values represent the sample’s concentrations required to inhibit 50% of cell proliferation and were calculated from a calibration curve by linear regression using Microsoft Excel.

[3] = test system: A549 human non-small cell lung cancer (NSCLC) cell line; assay: Neutral red (NR) uptake cytotoxicity assay, A549; type: cell-based; conditions: for IC50: Homo sapiens, A549, 72 h, neutral red assay, 72 h incubation; for selectivity index A549: IC50 in CRL2120 normal fibroblasts divided by IC50 in A549
Text: as §1
as §2, with “lysosomes.” for “lysosomes. The procedure is cheaper and more sensitive than other cytotoxicity tests.”

[4] = test system: caspase 9 in MCF-7 cells; assay: Caspase-Glo 9 assay; type: cell-based, human; conditions: IC50 and 2-fold IC50, 6 h (data not shown)
Description: Caspases activity in MCF-7 cells was detected using Caspase-Glo 3/7 and Caspase-Glo 9 Assay kits (Promega, Mannheim, Germany) as previously reported. […] Luminescence was measured using an BioTek Synergy™ HT multi-detection microplate reader. Caspase activity was expressed as percentage of the untreated control.

[5] = test system: six tested cancer cell lines (A549, SPC212, DLD-1, Caco-2, MCF-7, HepG2); assay: Neutral red uptake assay, statements over the six tested cancer cell lines; type: cell-based, human
Text: as §1, §2

[6] = test system: MCF-7 breast adenocarcinoma cells; assay: Neutral red (NR) uptake cytotoxicity assay, MCF-7; type: cell-based, human; conditions: for IC50: Homo sapiens, MCF7, 72 h, neutral red assay, 72 h incubation, read-out: IC50 MCF-7; for selectivity index MCF-7: IC50 in CRL2120 normal fibroblasts divided by IC50 in MCF-7
Text: as §1, §2

Row | IC50 ([5]; Homo sapiens, bound valid for all six cancer cell lines, neutral red assay) [µM] | Structure (SMILES) | MMP, gate P2 (loss / depletion of MMP) [1] [%] | IC50 [2] [µM] | IC50 [3] [µM] | selectivity index A549 [3] | activity of caspase 9 [4] | selectivity indexes (CRL2120 vs carcinoma cells), lower bound over the cancer cell lines ([5]; IC50 CRL2120 / IC50 cancer cell line) | IC50 [6] [µM] | selectivity index MCF-7 [6] | selectivity index DLD-1 ([2]; IC50 in CRL2120 normal fibroblasts divided by IC50 in DLD-1)
1 | – | CC1=CC(=O)c2c(O)cccc2C1=O [Compound 4, 5-hydroxy-2-methyl-1,4-naphthalenedione] | 12.2 | 0.98 ± 0.11 | 1.14 ± 0.02 | 59.35 | no modification | > 59 | 0.06 ± 0.01 | 1127.67 | –
2 | < 100 | CCCCCCCCCCCCCC1=C(O)C(=O)C=C(O)C1=O [Compound 9, 2,5-dihydroxy-3-tridecyl-2,5-cyclohexadiene-1,4-dione] | 88.1 | 46.6 ± 5.38 | 27.4 ± 1.46 | 3.48 | no modification | – | 16.9 ± 4.65 | 5.62 | 2.04
